Results: ChEMBL document CHEMBL1201862, “PubChem BioAssay data set” (2004)
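Test compounds were applied to cells in 96-well plates for 48 hours at 5 doses. GI50 = concentration required for 50% inhibition of growth.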 Active and inactive are the calls of the source. No stated cut-off is given here; in the data, active = GI50 up to about 1.1 µM and inactive = higher.

Assays:
Test in all cases: NCI anticancer screen, dose series, 48 h
NCI-H23 = system: NCI-H23
OVCAR-5 = system: OVCAR-5
SK-MEL-28 = system: SK-MEL-28
SW-620 = system: SW-620
NCI-H460 = system: NCI-H460
786-0 = system: 786-0
A549 = system: A549
Malme-3M = system: Malme-3M
SK-MEL-2 = system: SK-MEL-2
RXF 393 = system: RXF 393
NCI-H522 = system: NCI-H522
LOX IMVI = system: LOX IMVI
HT-29 = system: HT-29
RPMI-8226 = system: RPMI-8226
SN12C = system: SN12C
SNB-19 = system: SNB-19
K562 = system: K562
SR = system: SR
CAKI-1 = system: CAKI-1

Measured: GI50

C/C(CC(=O)Nc1cccc([N+](=O)[O-])c1)=N\NC(=O)C[n+]1ccccc1
inactive: NCI-H23 > 100 µM | OVCAR-5 > 100 µM | SK-MEL-28 > 100 µM | SW-620 > 100 µM | NCI-H460 > 100 µM | 786-0 > 100 µM | A549 > 100 µM | Malme-3M > 100 µM | SK-MEL-2 > 100 µM | RXF 393 > 100 µM | NCI-H522 > 100 µM | LOX IMVI > 100 µM | HT-29 > 100 µM | RPMI-8226 > 100 µM

N=C(N)NCCCC(Nc1c2ccccc2[n+]([O-])c2ccccc12)C(=O)O (stereo not given)
inactive: NCI-H23 34.6 µM | OVCAR-5 56.5 µM | SN12C 44.1 µM | SK-MEL-28 27.2 µM | SW-620 59.2 µM | NCI-H460 46 µM | 786-0 67.5 µM | SNB-19 64 µM | A549 > 100 µM | K562 27 µM | Malme-3M 39.4 µM | SK-MEL-2 88.3 µM | NCI-H522 29 µM | LOX IMVI 37.3 µM | RPMI-8226 10.4 µM

CCN(CC)CC(=O)NC1c2ccccc2Oc2ccccc21
inactive: NCI-H23 > 100 µM | OVCAR-5 > 100 µM | SN12C > 100 µM | SK-MEL-28 > 100 µM | SW-620 > 100 µM | SR > 100 µM | NCI-H460 > 100 µM | 786-0 > 100 µM | SNB-19 > 100 µM | A549 > 100 µM | K562 > 100 µM | RXF 393 > 100 µM | LOX IMVI > 100 µM | HT-29 > 100 µM | RPMI-8226 > 100 µM

COC(=O)N/N=C/c1oc(-c2cccc([N+](=O)[O-])c2)c(-c2cccc([N+](=O)[O-])c2)c1[N+](=O)[O-]
inactive: NCI-H23 > 100 µM | OVCAR-5 > 100 µM | SN12C > 100 µM | SK-MEL-28 > 100 µM | SW-620 > 100 µM | SR 40.7 µM | NCI-H460 > 100 µM | 786-0 > 100 µM | SNB-19 > 100 µM | A549 > 100 µM | K562 26.5 µM | RXF 393 > 100 µM | NCI-H522 60.8 µM | LOX IMVI 37.2 µM | HT-29 > 100 µM | RPMI-8226 30.1 µM

CCCCCCCCCOC(=S)NC
inactive: NCI-H23 16.7 µM | OVCAR-5 18.3 µM | SN12C 18.4 µM | SK-MEL-28 22.3 µM | SW-620 20.9 µM | CAKI-1 20.7 µM | NCI-H460 19.7 µM | 786-0 18.2 µM | SNB-19 30.8 µM | A549 24.8 µM | K562 21.8 µM | Malme-3M 20.6 µM | SK-MEL-2 19.5 µM | RXF 393 > 10 µM | NCI-H522 14.7 µM | LOX IMVI 18.2 µM | HT-29 20.6 µM | RPMI-8226 20 µM

Cc1ccccc1-n1c(=O)c2ncn(CCCl)c2n(-c2ccccc2C)c1=S
inactive: NCI-H23 > 100 µM | OVCAR-5 > 100 µM | SN12C > 100 µM | SK-MEL-28 > 100 µM | SW-620 > 100 µM | CAKI-1 > 100 µM | SR > 100 µM | NCI-H460 > 100 µM | 786-0 > 100 µM | A549 > 100 µM | K562 > 100 µM | SK-MEL-2 > 100 µM | RXF 393 > 100 µM | NCI-H522 38.5 µM | LOX IMVI > 100 µM | HT-29 > 100 µM | RPMI-8226 > 100 µM

CCCCCCCCCCCCCCCCOCC(COP(=O)(O)OCC1OC(n2cc(CC)c(=O)[nH]c2=O)CC1O)OC(=O)CCCCCCCCCCCCCCC (stereo not given)
inactive: NCI-H23 > 100 µM | OVCAR-5 > 100 µM | SN12C > 100 µM | SK-MEL-28 > 100 µM | SW-620 > 100 µM | CAKI-1 > 100 µM | SR > 100 µM | 786-0 > 100 µM | SNB-19 > 100 µM | A549 > 100 µM | K562 > 100 µM | SK-MEL-2 > 100 µM | RXF 393 > 100 µM | NCI-H522 > 100 µM | LOX IMVI > 100 µM | HT-29 > 100 µM | RPMI-8226 > 100 µM

CC(=O)Nc1ccc(/C=C/C(=O)c2sc(-c3cccnc3)nc2C)cc1
inactive: NCI-H23 > 100 µM | OVCAR-5 > 100 µM | SN12C > 100 µM | SK-MEL-28 > 100 µM | SW-620 > 100 µM | CAKI-1 > 100 µM | NCI-H460 > 100 µM | 786-0 > 100 µM | A549 > 100 µM | K562 > 100 µM | Malme-3M > 100 µM | SK-MEL-2 > 100 µM | RXF 393 > 100 µM | NCI-H522 > 100 µM | LOX IMVI > 100 µM | HT-29 > 100 µM | RPMI-8226 > 100 µM

CSc1cccc(-n2c3nc(=O)n(C)c(=O)c-3nc3ccccc32)c1
inactive: NCI-H23 4.35 µM | OVCAR-5 18 µM | SN12C 5.38 µM | SK-MEL-28 17.4 µM | SW-620 3.78 µM | CAKI-1 3.91 µM | NCI-H460 2.4 µM | 786-0 4.92 µM | SNB-19 12.9 µM | A549 2.65 µM | K562 12.5 µM | Malme-3M 3.04 µM | SK-MEL-2 13 µM | NCI-H522 14.7 µM | HT-29 2.51 µM | RPMI-8226 5.77 µM

N#CCCN(c1ccc(/C=C2\N=C(Cc3ccccc3)OC2=O)cc1)S(=O)(=O)c1ccccc1
inactive: NCI-H23 > 100 µM | OVCAR-5 > 100 µM | SN12C > 100 µM | SK-MEL-28 > 100 µM | SW-620 > 100 µM | CAKI-1 > 100 µM | NCI-H460 > 100 µM | 786-0 > 100 µM | SNB-19 > 100 µM | A549 > 100 µM | K562 > 100 µM | Malme-3M > 100 µM | SK-MEL-2 > 100 µM | RXF 393 > 100 µM | NCI-H522 > 100 µM | LOX IMVI > 100 µM | HT-29 > 100 µM | RPMI-8226 > 100 µM

O=C(CN1CCN(c2cccc(Cl)c2)CC1)N1CCc2c([nH]c3ccccc23)C1c1cccnc1 (stereo not given)
inactive: NCI-H23 16.4 µM | OVCAR-5 3.96 µM | SN12C 9.57 µM | SK-MEL-28 12.2 µM | SW-620 7.14 µM | CAKI-1 12.8 µM | SR 2.23 µM | NCI-H460 4.4 µM | 786-0 11.8 µM | SNB-19 26.1 µM | A549 7.13 µM | K562 3.03 µM | RXF 393 2.67 µM | NCI-H522 12.2 µM | HT-29 4 µM | RPMI-8226 1.92 µM

O=C(CNc1ccccc1Cl)Nn1c(-c2ccccc2)nc2ccccc2c1=O
inactive: NCI-H23 16.4 µM | OVCAR-5 > 10 µM | SN12C 34.4 µM | SK-MEL-28 21.2 µM | SW-620 19.8 µM | SR 23.4 µM | NCI-H460 78.5 µM | 786-0 19.7 µM | SNB-19 > 10 µM | A549 44.8 µM | K562 23.2 µM | RXF 393 20.3 µM | NCI-H522 > 10 µM | LOX IMVI 14.7 µM | HT-29 > 10 µM | RPMI-8226 28.7 µM
